How the values were obtained:
Assay type in all cases: in vivo
corn (Zea mays) [1] = assay: Test G Pre-Emergence Protocol; details: Zea mays, pre-emergence, 312 h, evaluated after 13 days; for plant injury at 15.625 g/ha: 15.625 g ai/ha; for plant injury at 15.625 g/ha / plant injury at 250 g/ha: read-out: Corn damage rating (100=total damage to plant; 0=no damage to plant); for plant injury at 62.5 g/ha: 62.5 g ai/ha, 100=total damage to plant, 0=no damage to plant, read-out: Corn damage rating; for plant injury at 250 g/ha: 250 g ai/ha
Procedure, shortened: (§1)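 Seeds were sown in standard soil and kept one day in a glasshouse (24/16° C day/night, 14 h light, 65% humidity), then sprayed with compound in acetone/water (50:50) containing 0.5% Tween 20 at 15.625, 62.5 or 250 g/ha. Damage was scored after 13 days (0 = none, 100 = total).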

[2] = tested on: giant foxtail (Setaria faberi); assay: Test G Pre-Emergence Protocol; details: Setaria faberi, pre-emergence, 312 h, evaluated after 13 days; for pest or weed control at 15.625 g/ha: 15.625 g ai/ha; for pest or weed control at 15.625 g/ha / pest or weed control at 250 g/ha: read-out: Foxtail, Giant damage rating (100=total damage to plant; 0=no damage to plant); for pest or weed control at 62.5 g/ha: 62.5 g ai/ha, 100=total damage to plant, 0=no damage to plant, read-out: Foxtail, Giant damage rating; for pest or weed control at 250 g/ha: 250 g ai/ha
Procedure, shortened: as §1

[3] = tested on: ivy-leaved morning glory (Ipomoea hederacea); assay: Test G Pre-Emergence Protocol; details: Ipomoea, pre-emergence, 312 h, evaluated after 13 days; for pest or weed control at 15.625 g/ha: 15.625 g ai/ha; for pest or weed control at 62.5 g/ha: 62.5 g ai/ha, 100=total damage to plant, 0=no damage to plant, read-out: Morningglory, Ivy-leaved damage rating
Procedure, shortened: as §1

[4] = tested on: velvetleaf (Abutilon theophrasti); assay: Test G Pre-Emergence Protocol; details: Abutilon theophrasti, pre-emergence, 312 h, evaluated after 13 days; for pest or weed control at 15.625 g/ha: 15.625 g ai/ha; for pest or weed control at 15.625 g/ha / pest or weed control at 250 g/ha: read-out: Velvetleaf damage rating (100=total damage to plant; 0=no damage to plant); for pest or weed control at 62.5 g/ha: 62.5 g ai/ha, 100=total damage to plant, 0=no damage to plant, read-out: Velvetleaf damage rating; for pest or weed control at 250 g/ha: 250 g ai/ha
Procedure, shortened: as §1

[5] = tested on: redroot pigweed (Amaranthus retroflexus); assay: Test G Pre-Emergence Protocol; details: Amaranthus retroflexus, pre-emergence, 312 h, evaluated after 13 days; for pest or weed control at 15.625 g/ha: 15.625 g ai/ha; for pest or weed control at 15.625 g/ha / pest or weed control at 250 g/ha: read-out: Pigweed, Redroot damage rating (100=total damage to plant; 0=no damage to plant); for pest or weed control at 62.5 g/ha: 62.5 g ai/ha, 100=total damage to plant, 0=no damage to plant, read-out: Pigweed, Redroot damage rating; for pest or weed control at 250 g/ha: 250 g ai/ha
Procedure, shortened: as §1

[6] = tested on: barnyardgrass (Echinochloa crus-galli); assay: Test G Pre-Emergence Protocol; details: Echinochloa crus-galli, pre-emergence, 312 h, evaluated after 13 days; for pest or weed control at 15.625 g/ha: 15.625 g ai/ha; for pest or weed control at 15.625 g/ha / pest or weed control at 250 g/ha: read-out: Barnyardgrass damage rating (100=total damage to plant; 0=no damage to plant); for pest or weed control at 62.5 g/ha: 62.5 g ai/ha, 100=total damage to plant, 0=no damage to plant, read-out: Barnyardgrass damage rating; for pest or weed control at 250 g/ha: 250 g ai/ha
Procedure, shortened: as §1

corn (Zea mays) [7] = assay: Test G Post-Emergence Protocol; details: Zea mays, post-emergence, 312 h, read-out: Corn damage rating; for plant injury at 15.625 g/ha: 15.625 g ai/ha, evaluated after 13 days (100=total damage to plant; 0=no damage to plant); for plant injury at 62.5 g/ha: 62.5 g ai/ha; for plant injury at 62.5 g/ha / plant injury at 250 g/ha: evaluated after 13 days, 100=total damage to plant, 0=no damage to plant; for plant injury at 250 g/ha: 250 g ai/ha
Procedure, shortened: (§2)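 Sow in soil; grow 8 d (24/16 °C, 14 h light, 65% humidity); spray 15.625/62.5/250 g/ha in acetone:water 50:50 + 0.5% Tween 20; grow on, water twice daily; score damage 0–100 at 13 d.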

[8] = tested on: giant foxtail (Setaria faberi); assay: Test G Post-Emergence Protocol; details: Setaria faberi, post-emergence, 312 h, read-out: Foxtail, Giant damage rating; for pest or weed control at 15.625 g/ha: 15.625 g ai/ha, evaluated after 13 days (100=total damage to plant; 0=no damage to plant); for pest or weed control at 62.5 g/ha: 62.5 g ai/ha; for pest or weed control at 62.5 g/ha / pest or weed control at 250 g/ha: evaluated after 13 days, 100=total damage to plant, 0=no damage to plant; for pest or weed control at 250 g/ha: 250 g ai/ha
Procedure, shortened: as §2

[9] = tested on: ivy-leaved morning glory (Ipomoea hederacea); assay: Test G Post-Emergence Protocol; details: Ipomoea, post-emergence, 312 h, read-out: Morningglory, Ivy-leaved damage rating; for pest or weed control at 15.625 g/ha: 15.625 g ai/ha, evaluated after 13 days (100=total damage to plant; 0=no damage to plant); for pest or weed control at 62.5 g/ha: 62.5 g ai/ha; for pest or weed control at 62.5 g/ha / pest or weed control at 250 g/ha: evaluated after 13 days, 100=total damage to plant, 0=no damage to plant; for pest or weed control at 250 g/ha: 250 g ai/ha
Procedure, shortened: as §2

[10] = tested on: velvetleaf (Abutilon theophrasti); assay: Test G Post-Emergence Protocol; details: Abutilon theophrasti, post-emergence, 312 h, read-out: Velvetleaf damage rating; for pest or weed control at 15.625 g/ha: 15.625 g ai/ha, evaluated after 13 days (100=total damage to plant; 0=no damage to plant); for pest or weed control at 62.5 g/ha: 62.5 g ai/ha; for pest or weed control at 62.5 g/ha / pest or weed control at 250 g/ha: evaluated after 13 days, 100=total damage to plant, 0=no damage to plant; for pest or weed control at 250 g/ha: 250 g ai/ha
Procedure, shortened: as §2

[11] = tested on: redroot pigweed (Amaranthus retroflexus); assay: Test G Post-Emergence Protocol; details: Amaranthus retroflexus, post-emergence, 312 h, read-out: Pigweed, Redroot damage rating; for pest or weed control at 15.625 g/ha: 15.625 g ai/ha, evaluated after 13 days (100=total damage to plant; 0=no damage to plant); for pest or weed control at 62.5 g/ha: 62.5 g ai/ha; for pest or weed control at 62.5 g/ha / pest or weed control at 250 g/ha: evaluated after 13 days, 100=total damage to plant, 0=no damage to plant; for pest or weed control at 250 g/ha: 250 g ai/ha
Procedure, shortened: as §2

[12] = tested on: barnyardgrass (Echinochloa crus-galli); assay: Test G Post-Emergence Protocol; details: Echinochloa crus-galli, post-emergence, 312 h, read-out: Barnyardgrass damage rating; for pest or weed control at 15.625 g/ha: 15.625 g ai/ha, evaluated after 13 days (100=total damage to plant; 0=no damage to plant); for pest or weed control at 62.5 g/ha: 62.5 g ai/ha; for pest or weed control at 62.5 g/ha / pest or weed control at 250 g/ha: evaluated after 13 days, 100=total damage to plant, 0=no damage to plant; for pest or weed control at 250 g/ha: 250 g ai/ha
Procedure, shortened: as §2

[13] = read-out: Morningglory, Ivy-leaved damage rating (100=total damage to plant; 0=no damage to plant)

Compound | plant injury at 15.625 g/ha (corn (Zea mays) [1]) | plant injury at 62.5 g/ha (corn (Zea mays) [1]) | plant injury at 250 g/ha (corn (Zea mays) [1]) | pest or weed control at 15.625 g/ha [2] | pest or weed control at 62.5 g/ha [2] | pest or weed control at 250 g/ha [2] | pest or weed control at 15.625 g/ha [3, 13] | pest or weed control at 62.5 g/ha [3] | pest or weed control at 15.625 g/ha [4] | pest or weed control at 62.5 g/ha [4] | pest or weed control at 250 g/ha [4] | pest or weed control at 15.625 g/ha [5] | pest or weed control at 62.5 g/ha [5] | pest or weed control at 250 g/ha [5] | pest or weed control at 15.625 g/ha [6] | pest or weed control at 62.5 g/ha [6] | pest or weed control at 250 g/ha [6] | plant injury at 15.625 g/ha (corn (Zea mays) [7]) | plant injury at 62.5 g/ha (corn (Zea mays) [7]) | plant injury at 250 g/ha (corn (Zea mays) [7]) | also measured
CN1C[C@H](c2cc(C(C)(C)C)ncn2)[C@@H](C(=O)Nc2ccc(F)c(F)c2F)C1=O (racemic) [Compound 1668] | 0% | 0% | 0% | 0% | 0% | 20% | 0% | 0% | 0% | 0% | 0% | 0% | 0% | 0% | 0% | 0% | 20% | 0% | 0% | 0% | pest or weed control at 15.625 g/ha [8]: 0%; pest or weed control at 62.5 g/ha [8]: 0%; pest or weed control at 250 g/ha [8]: 10%; pest or weed control at 15.625 g/ha [9]: 0%; pest or weed control at 62.5 g/ha [9]: 0%; pest or weed control at 250 g/ha [9]: 0%; pest or weed control at 15.625 g/ha [10]: 0%; pest or weed control at 62.5 g/ha [10]: 0%; pest or weed control at 250 g/ha [10]: 0%; pest or weed control at 15.625 g/ha [11]: 0%; pest or weed control at 62.5 g/ha [11]: 0%; pest or weed control at 250 g/ha [11]: 0%; pest or weed control at 15.625 g/ha [12]: 0%; pest or weed control at 62.5 g/ha [12]: 0%; pest or weed control at 250 g/ha [12]: 0%
CCCOc1cc(C2CN(C)C(=O)C2C(=O)Nc2cccc(F)c2F)cc(C(F)(F)F)c1 (centres unmarked) [Compound 1725] | 0% | 0% | 30% | 20% | 50% | 80% | 0% | 0% | 0% | 0% | 0% | 0% | 0% | 20% | 20% | 50% | 70% | 10% | 0% | 70% | pest or weed control at 250 g/ha ([3]; 250 g ai/ha, read-out: Morningglory, Ivy-leaved damage rating (100=total damage to plant; 0=no damage to plant)): 0%; pest or weed control at 15.625 g/ha [8]: 0%; pest or weed control at 62.5 g/ha [8]: 70%; pest or weed control at 250 g/ha [8]: 80%; pest or weed control at 15.625 g/ha [9]: 30%; pest or weed control at 62.5 g/ha [9]: 70%; pest or weed control at 250 g/ha [9]: 70%; pest or weed control at 15.625 g/ha [10]: 0%; pest or weed control at 62.5 g/ha [10]: 0%; pest or weed control at 250 g/ha [10]: 10%; pest or weed control at 15.625 g/ha [11]: 0%; pest or weed control at 62.5 g/ha [11]: 10%; pest or weed control at 250 g/ha [11]: 60%; pest or weed control at 15.625 g/ha [12]: 0%; pest or weed control at 62.5 g/ha [12]: 30%; pest or weed control at 250 g/ha [12]: 70%

Source: patent publication US12077503B2, “Substituted cyclic amides and their use as herbicides” (FMC CORPORATION, priority 2015, dated 2024)
